The test system of data set [1] is human immunodeficiency virus (HIV). The data set is described as follows: Anti-HIV activity: protection of HIV-infected MT-4 cells from cell death, MTT method. Conditions: for SI (CC50 /ED50): rough ratio of CC50 to EC50, MT-4 cells. As for the experimental part:
To a 96-well microtiter plate, HIV-infected MT-4 cells (2.5×10^4 cells/well, Multiplicity of infection (MOI): 0.001) was added immediately after the infection along with test materials in various concentrations. […] On the other hand, in order to know the cytotoxicity of the test substances on the MT-4 cells, virus-non-infected cells were cultured with the test materials in various concentrations as described above. […] And the rough ratio of CC50 to EC50 (CC50 /EC50) is expressed as an effective ratio (SI).

The next data set relates to MT-4 cells. In words: Cytotoxicity on virus-non-infected MT-4 cells, MTT method. In kind it is cell-based. The conditions noted are these: 5 days at 37° C. On the technique in general: Tetrazolium dyes change colour on reduction, which living cells bring about.
The mark [2] stands for this setting: HIV-infected MT-4 cells, MOI 0.001, 5 days at 37° C., MTT method.

Where a SMILES comes first, the peptide text is derived from it.

With Dextran sulfate [reference compound], the “EC50 (concentration to suppress 50% of cell death due to HIV infection)” value in data set [1] (setting [2]) is 0.68 µg/mL.

For the compound `N=C(N)NCCC[C@H](NC(=O)[C@@H]1CSSC[C@H](NC(=O)[C@H](Cc2c[nH]c3ccccc23)NC(=O)[C@H](CCCNC(=N)N)NC(=O)[C@@H](N)CCCNC(=N)N)C(=O)N[C@@H](Cc2ccc(O)cc2)C(=O)N[C@@H](CCCNC(=N)N)C(=O)N[C@@H](CCCCN)C(=O)N[C@H]2CSSC[C@H](NC(=O)[C@H](Cc3ccc(O)cc3)NC(=O)CNC(=O)[C@H](CCCCN)NC(=O)[C@H](Cc3ccc(O)cc3)NC2=O)C(=O)N[C@@H](Cc2ccc(O)cc2)C(=O)N[C@@H](CCCNC(=N)N)C(=O)N[C@@H](CCCCN)C(=O)N1)C(N)=O` [Polypeptide (1)] (HELM PEPTIDE1{R.R.W.C.Y.R.K.C.Y.K.G.Y.C.Y.R.K.C.R.[am]}$PEPTIDE1,PEPTIDE1,4:R3-17:R3|PEPTIDE1,PEPTIDE1,8:R3-13:R3$$$V2.0; bridges inferred), the “EC50 (concentration to suppress 50% of cell death due to HIV infection)” value in data set [1] (setting [2]) came to 0.0047 µg/mL. In addition, the “CC50 (50% cytotoxic concentration)” value in the data set with MT-4 cells turned out to be 41.53 µg/mL.

Take `N=C(N)NCCC[C@H](NC(=O)[C@H](CS)NC(=O)[C@H](CCCCN)NC(=O)[C@H](CCCNC(=N)N)NC(=O)[C@H](Cc1ccc(O)cc1)NC(=O)[C@H](CS)NC(=O)[C@H](Cc1ccc(O)cc1)NC(=O)CNC(=O)[C@H](CCCCN)NC(=O)[C@H](Cc1ccc(O)cc1)NC(=O)[C@H](CS)NC(=O)[C@H](CCCCN)NC(=O)[C@H](CCCNC(=N)N)NC(=O)[C@H](Cc1ccc(O)cc1)NC(=O)[C@H](CS)NC(=O)[C@H](Cc1c[nH]c2ccccc12)NC(=O)[C@H](CCCNC(=N)N)NC(=O)[C@@H](N)CCCNC(=N)N)C(N)=O` [Reduced form of polypeptide (1)] (H-RRWCYRKCYKGYCYRKCR-NH2): in data set [1] (setting [2]), the “EC50 (concentration to suppress 50% of cell death due to HIV infection)” value is 0.0052 µg/mL. Also, the “CC50 (50% cytotoxic concentration)” value in the data set with MT-4 cells was determined as 41.27 µg/mL.

For the compound `N=C(N)NCCC[C@H](NC(=O)[C@@H]1CSSC[C@H](NC(=O)[C@H](Cc2c[nH]c3ccccc23)NC(=O)[C@H](CCCNC(=N)N)NC(=O)[C@@H](N)CCCNC(=N)N)C(=O)N[C@@H](Cc2ccc(O)cc2)C(=O)N[C@@H](CCCNC(=N)N)C(=O)N[C@@H](CCCCN)C(=O)N[C@H](CCCCN)C(=O)N2CCC[C@H]2C(=O)N[C@@H](Cc2ccc(O)cc2)C(=O)N[C@@H](CCCNC(=N)N)C(=O)N[C@@H](CCCCN)C(=O)N1)C(N)=O` [Polypeptide (2), Arg-Arg-Trp-Cys-Tyr-Arg-Lys----------DLys-Pro-----------Tyr-Arg-Lys-Cys-Arg-NH2] (HELM PEPTIDE1{R.R.W.C.Y.R.K.[dK].P.Y.R.K.C.R.[am]}$PEPTIDE1,PEPTIDE1,4:R3-13:R3$$$V2.0), the “EC50 (concentration to suppress 50% of cell death due to HIV infection)” value in data set [1] (setting [2]) was determined as 0.029 µg/mL. Also, in data set [1], the “SI (CC50 /ED50)” value was 1565. In addition, the “CC50 (50% cytotoxic concentration)” value with MT-4 cells is 44.60 µg/mL.

As to `N=C(N)NCCC[C@H](NC(=O)[C@H](CS)NC(=O)[C@H](CCCCN)NC(=O)[C@H](CCCNC(=N)N)NC(=O)[C@H](Cc1ccc(O)cc1)NC(=O)[C@@H]1CCCN1C(=O)[C@@H](CCCCN)NC(=O)[C@H](CCCCN)NC(=O)[C@H](CCCNC(=N)N)NC(=O)[C@H](Cc1ccc(O)cc1)NC(=O)[C@H](CS)NC(=O)[C@H](Cc1c[nH]c2ccccc12)NC(=O)[C@H](CCCNC(=N)N)NC(=O)[C@@H](N)CCCNC(=N)N)C(N)=O` [Reduced form of] (HELM PEPTIDE1{R.R.W.C.Y.R.K.[dK].P.Y.R.K.C.R.[am]}$$$$V2.0), the “EC50 (concentration to suppress 50% of cell death due to HIV infection)” value in data set [1] (setting [2]) came to 0.040 µg/mL. Further, the “CC50 (50% cytotoxic concentration)” value with MT-4 cells is 41.17 µg/mL.

Turning to `Cc1cn([C@H]2C[C@H](N=[N+]=[N-])[C@@H](CO)O2)c(=O)[nH]c1=O` [AZT, reference compound], in data set [1] (read-out: EC50 (concentration to suppress 50% of cell death due to HIV infection), HIV-infected MT-4 cells, MOI 0.001, 5 days at 37° C., MTT method, unit μM printed with the compound), the EC50 is 0.0011 µM. The “SI (CC50 /ED50)” value in data set [1] is 1716. Besides, the “CC50 (50% cytotoxic concentration)” value with MT-4 cells (unit μM printed with the compound) turned out to be 1.93 µM.
